Measured values reported in US20110177105A1, “Novel Selective Inhibitors of Ubiquitin Specific Protease 7, the Pharmaceutical Compositions Thereof and Their Therapeutic Applications” (priority 2010, published 2011).
pIC50: −log10 of the molar value.

target: T1, Caspase 3 (Homo sapiens, UniProt P42574); experiment: Caspase 3 activity assay (Ac-DEVD-AMC); assay type: biochemical; conditions: 250 nM Ac-DEVD-AMC, 1.6 nM enzyme
T1 sequence (P42574 29-175 limits assumed): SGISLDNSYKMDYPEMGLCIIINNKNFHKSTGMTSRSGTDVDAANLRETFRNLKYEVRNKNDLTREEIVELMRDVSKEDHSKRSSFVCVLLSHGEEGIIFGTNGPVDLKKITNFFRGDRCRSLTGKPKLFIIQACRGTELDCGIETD
T1 sequence (P42574 176-277 limits assumed): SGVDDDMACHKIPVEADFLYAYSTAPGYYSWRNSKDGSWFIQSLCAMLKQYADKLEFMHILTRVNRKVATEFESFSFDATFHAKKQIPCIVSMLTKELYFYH
Protocol: Caspase 3 was diluted in Caspase 3 buffer (100 mM Hepes pH 7.5; 10% sucrose; 0.1% CHAPS). Compounds stocks (100 mM) were stored at −20° C. in DMSO. Compounds were tested at different concentrations: from 200 μM to 91 nM.
Reactions were performed as duplicates in Black 384 well plates (small volume microplates; Greiner; 10 μl final reaction volume). The substrate concentration for caspase 3 specificity assay was 250 nM (Ac-DEVD-AMC; Promega). The concentration of the enzyme (Caspase 3) in specificity assays was 1.6 nM. The concentrations were determined in order to perform specificity assays under initial velocities at fixed substrate concentration. Compounds were pre-incubated with enzymes for 30 minutes at 25° C. Reactions were initiated by addition of substrate to the plates containing the enzymes (+/−compounds) diluted in assay buffer. Reactions were incubated for 60 minutes at 37° C. Reactions were stopped by adding acetic acid (100 mM final). Readings were performed on a Pherastar Fluorescent Reader (BMG). λ Emission 380 nm; λ Excitation=460 nm. Data (mean values+/−standard deviation) were analyzed as % of control (no compound) and plotted as percentage versus the Log of the compound concentration using GraphPad (Prism). Data were fitted to a sigmoidal model (variable slope).

Compound	pIC50
CCN(CC)CCNC(=O)c1ccc2c(Cl)c3c(nc2c1)CCCC3 [Example 7, 9-Chloro-5,6,7,8-tetrahydro-acridine-3-carboxylic acid (2-diethylamino-ethyl)-amide]	< 3.70
O=C(NCCCN1CCCC1)c1ccc2c(Cl)c3c(nc2c1)CCCC3 [Example 8, 9-Chloro-5,6,7,8-tetrahydro-acridine-3-carboxylic acid (3-pyrrolidin-1-yl-propyl)-amide]	< 3.70
CC1CCCC(C)N1CCCNC(=O)c1ccc2c(Cl)c3c(nc2c1)CCCC3 (stereo not shown) [Example 9, 9-Chloro-5,6,7,8-tetrahydro-acridine-3-carboxylic acid [3-(2,6-dimethyl-piperidin-1-yl)-propyl]-amide]	< 3.70
CCN(CC)CCCNC(=O)c1ccc2c(Cl)c3c(nc2c1)CCCC3 [Example 10, 9-Chloro-5,6,7,8-tetrahydro-acridine-3-carboxylic acid (3-diethylamino-propyl)-amide]	< 3.70
CN(C)CCNC(=O)c1ccc2c(Cl)c3c(nc2c1)CCCC3 [Example 11, 9-Chloro-5,6,7,8-tetrahydro-acridine-3-carboxylic acid (2-dimethylamino-ethyl)-amide]	< 3.70
O=C(c1ccc2c(Cl)c3c(nc2c1)CCCC3)N1CCCCCC1 [Example 12, Azepan-1-yl-(9-chloro-5,6,7,8-tetrahydro-acridin-3-yl)-methanone]	< 3.70
CCCN1CCN(CCCNC(=O)c2ccc3c(Cl)c4c(nc3c2)CCCC4)CC1 [Example 13, 9-Chloro-5,6,7,8-tetrahydro-acridine-3-carboxylic acid [3-(4-propyl-piperazin-1-yl)-propyl]-amide]	< 3.70
CN(CCCNC(=O)c1ccc2c(Cl)c3c(nc2c1)CCCC3)Cc1ccccc1 [Example 14, 9-Chloro-5,6,7,8-tetrahydro-acridine-3-carboxylic acid [3-(benzyl-methyl-amino)-propyl]-amide]	< 3.70
CN1CCN(CCCNC(=O)c2ccc3c(Cl)c4c(nc3c2)CCCC4)CC1 [Example 15, 9-Chloro-5,6,7,8-tetrahydro-acridine-3-carboxylic acid [3-(4-methyl-piperazin-1-yl)-propyl]-amide]	< 3.70
O=C(c1ccc2c(Cl)c3c(nc2c1)CCCC3)N1CCC(N2CCCCC2)CC1 [Example 16, [1,4′]Bipiperidinyl-1′-yl-(9-chloro-5,6,7,8-tetrahydro-acridin-3-yl)-methanone]	< 3.70

Next, values leading:

pIC50	Compound
< 3.70	Cc1cccc(CN2CCC(CNC(=O)c3ccc4c(Cl)c5c(nc4c3)CCCC5)CC2)c1 [Example 1, 9-Chloro-5,6,7,8-tetrahydro-acridine-3-carboxylic acid [1-(3-methyl-benzyl)-piperidin-4-ylmethyl]-amide]
< 3.70	CCN1CCCC1CNC(=O)c1ccc2c(Cl)c3c(nc2c1)CCCC3 (stereo not shown) [Example 2, 9-Chloro-5,6,7,8-tetrahydro-acridine-3-carboxylic acid (1-ethyl-pyrrolidin-2-ylmethyl)-amide]
< 3.70	CCCN(CCC)CCNC(=O)c1ccc2c(Cl)c3c(nc2c1)CCCC3 [Example 3, 9-Chloro-5,6,7,8-tetrahydro-acridine-3-carboxylic acid (2-dipropylamino-ethyl)-amide]
< 3.70	CCCCN(CC)CCNC(=O)c1ccc2c(Cl)c3c(nc2c1)CCCC3 [Example 4, 9-Chloro-5,6,7,8-tetrahydro-acridine-3-carboxylic acid [2-(butyl-ethyl-amino)-ethyl]-amide]
< 3.70	CCN(CCCNC(=O)c1ccc2c(Cl)c3c(nc2c1)CCCC3)Cc1ccccc1 [Example 5, 9-Chloro-5,6,7,8-tetrahydro-acridine-3-carboxylic acid [3-(benzyl-ethyl-amino)-propyl]-amide]
< 3.70	CCCN(CCC)CCCNC(=O)c1ccc2c(Cl)c3c(nc2c1)CCCC3 [Example 6, 9-Chloro-5,6,7,8-tetrahydro-acridine-3-carboxylic acid (3-dipropylamino-propyl)-amide]
